Assay type in all cases: in vivo
The subject of assay [1] is organophosphorous agent resistant two-spotted spider mites. Kind of assay: Effect on Two-spotted Spider Mite (spray on kidney bean leaves). Particulars: 125 ppm, water dispersible powder of Formulation Example 1 sprayed, 17 female adults, 25° C., 65% humidity, 3 days. The method in brief: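 Mortality of adult females counted after 3 days at 25 °C and 65% humidity, following a 125 ppm spray of wettable-powder dilution onto infested 7–10-day-old bean seedlings (17 mites per leaf). Two replicates.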

The subject of another assay is army worms. Description: Effect on Army Worm (artificial feed test). The conditions noted are these: 10 μg of compound on 0.2 ml artificial feed, second instar, 25° C., 5 days. As for the experimental part:
Test feeds were prepared by filling plastic test tubes (capacity of 1.4 ml) with 0.2 ml of a commercial artificial feed (Insecta LFS, manufactured by Nosan Corporation). Each of 1% chemical compound solutions was prepared by using DMSO (containing 0.5% tween 20), which was then dropped into the surface of the feed in amount of 10 μg of the respective chemical compounds. 2 army worms, each of which was in the second instar, were inoculated into each of the test tubes, which were then sealed by their plastic caps. After they were left at 25° C. for 5 days, the rate of killed army worms and their feed consumptions were investigated. The test was repeated twice. […] 1-8, 1-9, 1-13, 1-15, 1-17, 1-22, 1-23, 1-27, 1-39, 1-45, 1-46, 1-59, 1-69, 1-72, 1-74, 1-75, 1-79, 1-80, 1-83, 1-95, 1-97, 1-981-100, 1-105, 1-108, 1-114, 1-133, 1-140, 1-147, 1-153, 1-165, 1-166, 1-181, 1-182, 1-183, 1-184, 1-187, 1-189, 1-190,

The test system of assay [2] is acaricide resistant citrus red mites. Kind of assay: Effect on Citrus Red Mite (spray on mandarin orange leaves). The conditions noted are these: 31 ppm, emulsifiable concentrate of Formulation Example 2 sprayed, 10 female adults, 25° C., 65% humidity. On the procedure: Effect on Citrus Red Mite
10 female adults of acaricide resistant citrus red mites were inoculated onto leaves of a mandarin orange placed on dishes, onto which each of liquid agents, diluted with water so as to adjust the respective concentration of the chemical compounds to 31 ppm according to the formulation of the emulsifiable concentrate shown in the aforementioned Formulation Example 2, was sprayed by using a rotating sparge tower. After they were left in a thermostatic chamber at 25° C. in 65% humidity for 3 days, and were then removed from the dishes, eggs laid for 3 days were investigated whether they could grow to adults or not on the eleventh day. As the results, the following chemical compounds killed 100% of the adults. 1-13, 1-15, 1-22, 1-27, 1-45, 1-54, 1-59, 1-63, 1-66, 1-69, 1-71, 1-72, 1-75, 1-80, 1-88, 1-89, 1-92, 1-93, 1-94, 1-97, 1-98, 1-100, 1-102, 1-105, 1-108, 1-133, 1-136, 1-142, 1-153, 1-181, 1-183, 1-186, 1-187, 1-188, 1-189, 1-190, 1-191,

Molecules are shown by their SMILES.

In the case of `Fc1cc(C(F)(F)F)ccc1OC1CCN(c2ccc(C(F)(F)F)cn2)CC1` [1-8], the “rate of killed adults” value in assay [1] came to 100%. In addition, in the assay with army worms, the “killed 100% of the army worms, or inhibited their feed consumptions, in comparison with a solvent control area, to 10% or less (effective)” value is “effective”.

On to `FC(F)(F)c1ccc(N2CCC(Oc3c(Cl)cc(C(F)(F)F)cc3Br)CC2)nc1` [1-17], for which, in assay [1], the “rate of killed adults” value is listed as 100%. In addition, the “killed 100% of the army worms, or inhibited their feed consumptions, in comparison with a solvent control area, to 10% or less (effective)” value with army worms is given as “effective”.

Regarding `Fc1ccc(OC2CCN(c3ccc(C(F)(F)F)cn3)CC2)cc1C(F)(F)F` [1-9], the “rate of killed adults” value in assay [1] was found to be 100%. For the same molecule, the “killed 100% of the army worms, or inhibited their feed consumptions, in comparison with a solvent control area, to 10% or less (effective)” value in the assay with army worms is given as “effective”.

Take `FC(F)(F)c1ccc(N2CCC(Oc3ccc(C(F)(F)F)cc3OCCCl)CC2)nc1` [1-140]: the “rate of killed adults” value in assay [1] is 100%. Further, the “killed 100% of the army worms, or inhibited their feed consumptions, in comparison with a solvent control area, to 10% or less (effective)” value with army worms is on record as “effective”.

Regarding `COCOC(C)c1cc(C(F)(F)F)ccc1OC1CCN(c2ccc(C(F)(F)F)cn2)CC1` (stereo not drawn) [1-184], in assay [1], the “rate of killed adults” value was found to be 100%. For the same molecule, in the assay with army worms, the “killed 100% of the army worms, or inhibited their feed consumptions, in comparison with a solvent control area, to 10% or less (effective)” value is recorded as “effective”.

On to `Cc1cc(OC(F)(F)F)ccc1OC1CCN(c2ccc(C(F)(F)F)cn2)CC1` [1-46], for which the “rate of killed adults” value in assay [1] is on record as 100%. In the assay with army worms, the “killed 100% of the army worms, or inhibited their feed consumptions, in comparison with a solvent control area, to 10% or less (effective)” value is “effective”.

In the case of `O=[N+]([O-])c1ccc(OC2CCN(c3ccc(C(F)(F)F)cn3)CC2)cc1C(F)(F)F` [1-39, 4-[4-nitro-3-(trifluoromethyl)phenoxy]-1-[5-(trifluoromethyl)-2-pyridyl]-piperidine], the “killed 100% of the army worms, or inhibited their feed consumptions, in comparison with a solvent control area, to 10% or less (effective)” value in the assay on army worms is on record as “effective”.

As for `FC(F)(F)c1ccc(N2CCC(Oc3cc(C(F)(F)F)cc(C(F)(F)F)c3)CC2)nc1` [1-79], in assay [1], the “rate of killed adults” value worked out at 100%. In the assay with army worms, the “killed 100% of the army worms, or inhibited their feed consumptions, in comparison with a solvent control area, to 10% or less (effective)” value was “effective”.

For `FC(F)(F)c1ccc(OC2CCN(c3ncc(C(F)(F)F)cc3Cl)CC2)cc1` [1-83], in the assay with army worms, the “killed 100% of the army worms, or inhibited their feed consumptions, in comparison with a solvent control area, to 10% or less (effective)” value is “effective”.

`FC(F)(F)c1cnc(N2CCC(Oc3c(Cl)cc(OCC=C(Cl)Cl)c(Cl)c3Cl)CC2)c(Cl)c1` [1-165]: the “killed 100% of the army worms, or inhibited their feed consumptions, in comparison with a solvent control area, to 10% or less (effective)” value in the assay with army worms was “effective”.

Regarding `CC(C)OC(=O)c1cc(C(F)(F)F)ccc1O[C@@H]1[C@@H]2CC[C@H]1CN(c1ccc(C(F)(F)F)cn1)C2` [5-245], the “killed ... of the adults (eggs laid for 3 days investigated whether they could grow to adults on the eleventh day)” value (shortened to “killed ... of the adults”) in assay [2] is listed as 100%. In addition, the “rate of killed adults” value in assay [1] is given as 100%.

With `COCc1cc(C(F)(F)F)ccc1OC1CCN(c2ccc(C(F)(F)F)cn2)CC1` [1-63], the “killed ... of the adults” value in assay [2] was found to be 100%. Further, the “rate of killed adults” value in assay [1] came out at 100%.

Take `CC(C)CC(O)c1cc(C(F)(F)F)ccc1OC1C2CCC1CN(c1ccc(C(F)(F)F)cn1)C2` (stereo not drawn) [5-239]: in assay [2], the “killed ... of the adults” value is reported as 100%. Besides, the “rate of killed adults” value in assay [1] was determined as 100%.

For the molecule `Cc1coc(-c2cc(C(F)(F)F)ccc2O[C@@H]2[C@@H]3CC[C@H]2CN(c2ccc(C(F)(F)F)cn2)C3)n1` [5-261], the “killed ... of the adults” value in assay [2] worked out at 100%. In addition, in assay [1], the “rate of killed adults” value is listed as 100%.

On to `FC(F)(F)c1ccc(N2CC3CCC(C2)C3Oc2ccc(C(F)(F)F)cc2C2CCCO2)nc1` (stereo not drawn) [5-237], for which the “killed ... of the adults” value in assay [2] was determined as 100%. Moreover, the “rate of killed adults” value in assay [1] amounted to 100%.

For the molecule `O=S(=O)(Oc1cc(C(F)(F)F)ccc1OC1C2CCC1CN(c1ccc(C(F)(F)F)cn1)C2)C(F)(F)F` (stereo not drawn) [5-234], in assay [2], the “killed ... of the adults” value is recorded as 100%. Moreover, in assay [1], the “rate of killed adults” value is given as 100%.

Regarding `CCOC(C)OCc1cc(C(F)(F)F)ccc1OC1C2CCC1CN(c1ccc(C(F)(F)F)cn1)C2` (stereo not drawn) [5-229], the “killed ... of the adults” value in assay [2] came to 100%. Also, the “rate of killed adults” value in assay [1] came out at 100%.

`COCOCc1cc(C(F)(F)F)ccc1O[C@@H]1[C@@H]2CC[C@H]1CN(c1ccc(C(F)(F)F)cn1)C2` [5-69]: the “killed ... of the adults” value in assay [2] was determined as 100%. Besides, the “rate of killed adults” value in assay [1] is on record as 100%.

Take `FC(F)(Br)Oc1ccc(OC2CCN(c3ccc(C(F)(F)F)cn3)CC2)cc1` [1-136]: in assay [2], the “killed ... of the adults” value was found to be 100%. The “rate of killed adults” value in assay [1] came out at 100%.

Turning to `CC(C)COc1cc(C(F)(F)F)ccc1OC1CCN(c2ccc(C(F)(F)F)cn2)CC1` [1-102], the “killed ... of the adults” value in assay [2] is given as 100%. Further, the “rate of killed adults” value in assay [1] turned out to be 100%.

With `FC(F)(F)c1ccc(N2CCC(Oc3c(Cl)cc(OCC=C(Cl)Cl)c(Cl)c3Cl)CC2)nc1` [1-166], the “killed 100% of the army worms, or inhibited their feed consumptions, in comparison with a solvent control area, to 10% or less (effective)” value in the assay with army worms was “effective”.

With `CCCOc1cc(C(F)(F)F)ccc1OC1CCN(c2ccc(C(F)(F)F)cn2)CC1CCC` (stereo not drawn) [1-191], the “killed ... of the adults” value in assay [2] came to 100%. Moreover, the “rate of killed adults” value in assay [1] was 100%.

For `CCCCOc1cc(C(F)(F)F)ccc1OC1C2CCC1CN(c1ccc(C(F)(F)F)cn1)C2` (stereo not drawn) [5-224], in assay [2], the “killed ... of the adults” value was determined as 100%. Further, in assay [1], the “rate of killed adults” value stood at 100%.

As for `CCCOc1cc(C(F)(F)F)ccc1OC1CCN(c2ccc(C(F)(F)F)cn2)CC1(C)C(=O)OCC` (stereo not drawn) [1-95], the “killed 100% of the army worms, or inhibited their feed consumptions, in comparison with a solvent control area, to 10% or less (effective)” value in the assay on army worms is given as “effective”.

For the molecule `N#Cc1ccc(O[C@@H]2[C@@H]3CC[C@H]2CN(c2ccc(C(F)(F)F)cn2)C3)c(OCC2CC2)c1` [5-121], the “killed ... of the adults” value in assay [2] was 100%. In addition, the “rate of killed adults” value in assay [1] came to 100%.

For `CCOCc1cc(C(F)(F)F)ccc1OC1C2CCC1CN(c1ccc(C(F)(F)F)cn1)C2` (stereo not drawn) [5-220], the “killed ... of the adults” value in assay [2] worked out at 100%. Further, the “rate of killed adults” value in assay [1] worked out at 100%.

In the case of `CCOCOCc1cc(C(F)(F)F)ccc1OC1CCN(c2ccc(C(F)(F)F)cn2)CC1` [1-71], in assay [2], the “killed ... of the adults” value is reported as 100%. Also, the “rate of killed adults” value in assay [1] amounted to 100%.

For the molecule `COC(C)OCc1cc(C(F)(F)F)ccc1O[C@@H]1[C@@H]2CC[C@H]1CN(c1ccc(C(F)(F)F)cn1)C2` (stereo partly drawn) [5-72], the “killed ... of the adults” value in assay [2] is 100%. In addition, in assay [1], the “rate of killed adults” value is given as 100%.

As for `CCCOc1cc(C(F)(F)F)ccc1OC1CCN(c2ccc(C(F)(F)F)cn2)CC1C` (stereo not drawn) [1-98], the “killed ... of the adults” value in assay [2] is 100%. In addition, in assay [1], the “rate of killed adults” value is recorded as 100%.

With `COC(C)OCc1cc(C(F)(F)F)ccc1OC1CCN(c2ccc(C(F)(F)F)cn2)CC1C` (stereo not drawn) [1-188], the “killed ... of the adults” value in assay [2] was 100%. Besides, the “rate of killed adults” value in assay [1] is 100%.

Consider `CCCOc1cc(C(F)(F)F)ccc1OC1CCN(c2ccc(C)cn2)CC1` [1-94], for which the “killed ... of the adults” value in assay [2] was found to be 100%. In addition, in assay [1], the “rate of killed adults” value is 100%.

As for `CCCOc1cc(C(F)(F)F)ccc1OC1CCN(c2ccc(C(F)(F)F)cn2)C(C)C1` (stereo not drawn) [1-93, 2-methyl-4-[2-propoxy-4-(trifluoromethyl)phenoxy]-1-[5-(trifluoromethyl)-2-pyridyl]piperidine], the “killed ... of the adults” value in assay [2] worked out at 100%. The “rate of killed adults” value in assay [1] is on record as 100%.

For `CCS(=O)(=O)Oc1cc(C(F)(F)F)ccc1OC1C2CCC1CN(c1ccc(C(F)(F)F)cn1)C2` (stereo not drawn) [5-162], the “killed ... of the adults” value in assay [2] is 100%. For the same molecule, the “rate of killed adults” value in assay [1] was found to be 100%.

Turning to `CCC(OC)OCc1cc(C(F)(F)F)ccc1OC1C2CCC1CN(c1ccc(C(F)(F)F)cn1)C2` (stereo not drawn) [5-222], the “killed ... of the adults” value in assay [2] is reported as 100%. In addition, the “rate of killed adults” value in assay [1] was 100%.

For the origin of these results see patent publication US8101768B2, “Cyclic amine compound and pest control agent” (Nippon Soda Co., Ltd., priority 2004, dated 2012).
